Experimental data published in article PMC3961306, “Comparison of the Cancer Gene Targeting and Biochemical Selectivities of All Targeted Kinase Inhibitors Approved for Clinical Use” (PLoS ONE, 2014).
Where two headings read alike, the source gives them in different places.

Tested on: forty-four human cancer cell lines
Test: Cell proliferation assay (ATPlite, 72 hours) in the 44 cell line Oncolines panel
Format: cell-based

Question: With `N.N.[Cl][Pt][Cl]` [cisplatin] as the compound, how does the IC50 (U-87 MG cell line, ATPlite, 72 hours, read-out: IC50 in cell proliferation assay (table S5 cellpanel data)) read?
Answer: Its IC50 is greater than 31.6 µM.

Question: What about the IC50 (cell line 769-P, read-out: cell panel IC50, 769-P) of the same compound?
Answer: Its IC50 is greater than 31.6 µM.

Question: And the IC50 (cell line 786-0, read-out: cell panel IC50, 786-0)?
Answer: The IC50 was 15.1 µM.

Question: And the IC50 (cell line A375, read-out: cell panel IC50, A375)?
Answer: Its IC50 is 13.3 µM.

Question: And the IC50 (cell line A-204, read-out: cell panel IC50, A-204)?
Answer: The IC50 was greater than 31.6 µM.

Question: And the IC50 (cell line ACHN, read-out: cell panel IC50, ACHN)?
Answer: The IC50 was 13.5 µM.

Question: And the IC50 (cell line AN3 CA, read-out: cell panel IC50, AN3 CA)?
Answer: The IC50 was 27.5 µM.

Question: And the IC50 (cell line BT-20, read-out: cell panel IC50, BT-20)?
Answer: The IC50 was greater than 31.6 µM.

Question: And the IC50 (cell line BxPC-3, read-out: cell panel IC50, BxPC-3)?
Answer: The IC50 was 20.2 µM.

Question: And the IC50 (cell line C-33 A, read-out: cell panel IC50, C-33 A)?
Answer: Its IC50 is 13.9 µM.

Question: And the IC50 (cell line CAL 27, read-out: cell panel IC50, CAL 27)?
Answer: The IC50 was 6.14 µM.

Question: And the IC50 (cell line CCRF-CEM, read-out: cell panel IC50, CCRF-CEM)?
Answer: The IC50 was 10.5 µM.

Question: What about the IC50 (cell line DLD-1, read-out: cell panel IC50, DLD-1) of the same compound?
Answer: Its IC50 is greater than 31.6 µM.

Question: And the IC50 (cell line FaDu, read-out: cell panel IC50, FaDu)?
Answer: Its IC50 is 27.3 µM.

Question: And the IC50 (cell line HCT-15, read-out: cell panel IC50, HCT-15)?
Answer: The IC50 was greater than 31.6 µM.

Question: What about the IC50 (cell line Hs 578T, read-out: cell panel IC50, Hs 578T) of the same compound?
Answer: The IC50 was greater than 31.6 µM.

Question: What about the IC50 (cell line J82, read-out: cell panel IC50, J82) of the same compound?
Answer: Its IC50 is 10.1 µM.

Question: And the IC50 (cell line Jurkat E6.1, read-out: cell panel IC50, Jurkat E6.1)?
Answer: The IC50 was 4.85 µM.

Question: What about the IC50 (cell line LoVo, read-out: cell panel IC50, LoVo) of the same compound?
Answer: The IC50 was greater than 31.6 µM.

Question: What about the IC50 (cell line MG-63, read-out: cell panel IC50, MG-63) of the same compound?
Answer: The IC50 was 8.57 µM.

Question: What about the IC50 (cell line MOLT-4, read-out: cell panel IC50, MOLT-4) of the same compound?
Answer: Its IC50 is 8.09 µM.

Question: And the IC50 (cell line MeWo, read-out: cell panel IC50, MeWo)?
Answer: Its IC50 is greater than 31.6 µM.

Question: And the IC50 (cell line NCI-H82, read-out: cell panel IC50, NCI-H82)?
Answer: Its IC50 is 19.8 µM.

Question: And the IC50 (cell line NCI-H460, read-out: cell panel IC50, NCI-H460)?
Answer: Its IC50 is 10 µM.

Question: And the IC50 (cell line OVCAR-3, read-out: cell panel IC50, OVCAR-3)?
Answer: Its IC50 is greater than 31.6 µM.

Question: What about the IC50 (cell line PA-1, read-out: cell panel IC50, PA-1) of the same compound?
Answer: Its IC50 is 1.42 µM.

Question: What about the IC50 (cell line RPMI-7951, read-out: cell panel IC50, RPMI-7951) of the same compound?
Answer: The IC50 was 10 µM.

Question: What about the IC50 (cell line SHP-77, read-out: cell panel IC50, SHP-77) of the same compound?
Answer: The IC50 was greater than 31.6 µM.

Question: And the IC50 (cell line SJCRH30, read-out: cell panel IC50, SJCRH30)?
Answer: Its IC50 is greater than 31.6 µM.

Question: And the IC50 (cell line SK-N-AS, read-out: cell panel IC50, SK-N-AS)?
Answer: The IC50 was greater than 31.6 µM.

Question: What about the IC50 (cell line SR, read-out: cell panel IC50, SR) of the same compound?
Answer: Its IC50 is 4.45 µM.

Question: And the IC50 (cell line SW48, read-out: cell panel IC50, SW48)?
Answer: Its IC50 is greater than 31.6 µM.

Question: And the IC50 (cell line SW480, read-out: cell panel IC50, SW480)?
Answer: The IC50 was greater than 31.6 µM.

Question: What about the IC50 (cell line SW620, read-out: cell panel IC50, SW620) of the same compound?
Answer: Its IC50 is greater than 31.6 µM.

Question: What about the IC50 (cell line U-2 OS, read-out: cell panel IC50, U-2 OS) of the same compound?
Answer: The IC50 was greater than 31.6 µM.

Question: And the IC50 (read-out: cell panel IC50, A-172, cell line A-172)?
Answer: The IC50 was greater than 31.6 µM.

Question: What about the IC50 (read-out: cell panel IC50, A-427, cell line A-427) of the same compound?
Answer: Its IC50 is greater than 31.6 µM.

Question: What about the IC50 (read-out: cell panel IC50, A-498, cell line A-498) of the same compound?
Answer: The IC50 was 23.3 µM.

Question: And the IC50 (read-out: cell panel IC50, A-549, cell line A-549)?
Answer: Its IC50 is 15.6 µM.

Question: What about the IC50 (read-out: cell panel IC50, AU-565, cell line AU-565) of the same compound?
Answer: Its IC50 is 15.2 µM.

Question: What about the IC50 (read-out: cell panel IC50, BT-549, cell line BT-549) of the same compound?
Answer: Its IC50 is 9.55 µM.

Question: And the IC50 (read-out: cell panel IC50, HCT-116, cell line HCT-116)?
Answer: The IC50 was greater than 31.6 µM.

Question: What about the IC50 (read-out: cell panel IC50, K-562, cell line K-562) of the same compound?
Answer: The IC50 was greater than 31.6 µM.

Question: And the IC50 (read-out: cell panel IC50, LS 174T, cell line LS 174T)?
Answer: The IC50 was 8.57 µM.

Question: With `CNC(=O)c1cc(Oc2ccc(NC(=O)Nc3ccc(Cl)c(C(F)(F)F)c3)cc2)ccn1` [sorafenib] as the compound, how does the IC50 (Homo sapiens, 4-4 cell, read-out: cell panel IC50, J82) read?
Answer: Its IC50 is 26.5 µM.

Question: And the IC50 (Homo sapiens, 4-4 cell, read-out: cell panel IC50, PA-1)?
Answer: Its IC50 is 11.7 µM.

Question: What about the IC50 (Homo sapiens, 4-4 cell, read-out: cell panel IC50, SJCRH30) of the same compound?
Answer: Its IC50 is 12.1 µM.

Question: What about the IC50 (Homo sapiens, 4-4 cell, read-out: cell panel IC50, SR) of the same compound?
Answer: The IC50 was 11.8 µM.

Question: What about the IC50 (Homo sapiens, 769-P, read-out: cell panel IC50, 769-P) of the same compound?
Answer: Its IC50 is 12.7 µM.

Question: What about the IC50 (Homo sapiens, 786-0, read-out: cell panel IC50, 786-0) of the same compound?
Answer: The IC50 was 11.7 µM.

Question: And the IC50 (Homo sapiens, A 172, read-out: cell panel IC50, A-172)?
Answer: Its IC50 is 22.6 µM.

Question: What about the IC50 (Homo sapiens, A204, read-out: cell panel IC50, A-204) of the same compound?
Answer: Its IC50 is 1.62 µM.

Question: What about the IC50 (Homo sapiens, A498, read-out: cell panel IC50, A-498) of the same compound?
Answer: Its IC50 is 18.7 µM.

Question: What about the IC50 (Homo sapiens, A549, read-out: cell panel IC50, A-549) of the same compound?
Answer: The IC50 was 21.2 µM.

Question: What about the IC50 (Homo sapiens, A-375, read-out: cell panel IC50, A375) of the same compound?
Answer: The IC50 was 28.7 µM.

Question: What about the IC50 (Homo sapiens, A-427, read-out: cell panel IC50, A-427) of the same compound?
Answer: The IC50 was 7.78 µM.

Question: And the IC50 (Homo sapiens, ACHN, read-out: cell panel IC50, ACHN)?
Answer: The IC50 was 17.5 µM.

Question: And the IC50 (Homo sapiens, AN3-CA, read-out: cell panel IC50, AN3 CA)?
Answer: The IC50 was 9.97 µM.

Question: What about the IC50 (Homo sapiens, AU565, read-out: cell panel IC50, AU-565) of the same compound?
Answer: Its IC50 is 10.4 µM.

Question: And the IC50 (Homo sapiens, BT-20, read-out: cell panel IC50, BT-20)?
Answer: Its IC50 is 25.1 µM.

Question: What about the IC50 (Homo sapiens, BT-549, read-out: cell panel IC50, BT-549) of the same compound?
Answer: The IC50 was 18.2 µM.

Question: What about the IC50 (Homo sapiens, BXPC-3, read-out: cell panel IC50, BxPC-3) of the same compound?
Answer: Its IC50 is 11.1 µM.

Question: What about the IC50 (Homo sapiens, C-33-A, read-out: cell panel IC50, C-33 A) of the same compound?
Answer: Its IC50 is 15.9 µM.

Question: And the IC50 (Homo sapiens, CAL-27, read-out: cell panel IC50, CAL 27)?
Answer: The IC50 was 14 µM.

Question: What about the IC50 (Homo sapiens, CCRF-CEM, read-out: cell panel IC50, CCRF-CEM) of the same compound?
Answer: Its IC50 is 13 µM.

Question: What about the IC50 (Homo sapiens, DLD-1, read-out: cell panel IC50, DLD-1) of the same compound?
Answer: The IC50 was 10.5 µM.

Question: And the IC50 (Homo sapiens, FaDu, read-out: cell panel IC50, FaDu)?
Answer: Its IC50 is 16.2 µM.

Question: And the IC50 (Homo sapiens, HCT-15, read-out: cell panel IC50, HCT-15)?
Answer: The IC50 was 9.9 µM.

Question: What about the IC50 (Homo sapiens, HCT-116, read-out: cell panel IC50, HCT-116) of the same compound?
Answer: Its IC50 is 11.9 µM.

Question: And the IC50 (Homo sapiens, Hs-578T, read-out: cell panel IC50, Hs 578T)?
Answer: Its IC50 is 21.6 µM.

Question: What about the IC50 (Homo sapiens, Jurkat E6.1, read-out: cell panel IC50, Jurkat E6.1) of the same compound?
Answer: Its IC50 is 7.94 µM.

Question: What about the IC50 (Homo sapiens, K562, read-out: cell panel IC50, K-562) of the same compound?
Answer: Its IC50 is 9.46 µM.

Question: And the IC50 (Homo sapiens, LS174T, read-out: cell panel IC50, LS 174T)?
Answer: The IC50 was 11.7 µM.

Question: What about the IC50 (Homo sapiens, LoVo, read-out: cell panel IC50, LoVo) of the same compound?
Answer: Its IC50 is 11.3 µM.

Question: And the IC50 (Homo sapiens, MG-63, read-out: cell panel IC50, MG-63)?
Answer: The IC50 was 27.4 µM.

Question: What about the IC50 (Homo sapiens, MOLT-4, read-out: cell panel IC50, MOLT-4) of the same compound?
Answer: The IC50 was 10.5 µM.

Question: And the IC50 (Homo sapiens, MeWo, read-out: cell panel IC50, MeWo)?
Answer: Its IC50 is 20.9 µM.

Question: What about the IC50 (Homo sapiens, NCI-H82, read-out: cell panel IC50, NCI-H82) of the same compound?
Answer: The IC50 was 11.3 µM.

Question: And the IC50 (Homo sapiens, NCI-H460, read-out: cell panel IC50, NCI-H460)?
Answer: The IC50 was 14.1 µM.

Question: What about the IC50 (Homo sapiens, OVCAR-3, read-out: cell panel IC50, OVCAR-3) of the same compound?
Answer: Its IC50 is greater than 31.6 µM.

Question: What about the IC50 (Homo sapiens, RPMI-7951, read-out: cell panel IC50, RPMI-7951) of the same compound?
Answer: The IC50 was 20.4 µM.

Question: And the IC50 (Homo sapiens, SHP77, read-out: cell panel IC50, SHP-77)?
Answer: The IC50 was 13.6 µM.

Question: And the IC50 (Homo sapiens, SK-N-AS, read-out: cell panel IC50, SK-N-AS)?
Answer: The IC50 was 28.9 µM.

Question: What about the IC50 (Homo sapiens, SW48, read-out: cell panel IC50, SW48) of the same compound?
Answer: Its IC50 is 8.3 µM.

Question: What about the IC50 (Homo sapiens, SW480, read-out: cell panel IC50, SW480) of the same compound?
Answer: Its IC50 is 5.33 µM.

Question: What about the IC50 (Homo sapiens, SW-620, read-out: cell panel IC50, SW620) of the same compound?
Answer: The IC50 was 5.95 µM.

Question: What about the IC50 (Homo sapiens, U2OS, read-out: cell panel IC50, U-2 OS) of the same compound?
Answer: The IC50 was 15.8 µM.

Question: And the IC50 (Homo sapiens, U-87 MG, 72 h, read-out: IC50 in cell proliferation assay (table S5 cellpanel data))?
Answer: The IC50 was 28.3 µM.
